ChEMBL document CHEMBL1255498, “Moxifloxacin pharmacokinetics/pharmacodynamics and optimal dose and susceptibility breakpoint identification for treatment of disseminated Mycobacterium avium infection” (Antimicrob Agents Chemother, 2010)
Values after ≈ are worked out from the molar mass of the structure shown.

Columns and labels:
Mycobacterium avium = experiment: Antimicrobial activity against Mycobacterium avium by CLSI method
[1] = Antimicrobial activity against Mycobacterium avium subsp. hominissuis ATCC 700898 infected in human THP1 cells in presence of 2% FBS; type: functional, cell-based; conditions: ATCC 700898, THP-1
[2] = Antimicrobial activity against Mycobacterium avium subsp. hominissuis ATCC 700898 infected in human THP1 cells in presence of 10% FBS; type: functional, cell-based; conditions: ATCC 700898, THP-1
[3] = Antimicrobial activity against Mycobacterium avium subsp. hominissuis ATCC 700898 infected in human THP1 cells in presence of 20% FBS; type: functional, cell-based; conditions: ATCC 700898, THP-1
[4] = microbe, parasite or virus in culture; conditions: Mycobacterium avium, ATCC 700898
[5] = microbe, parasite or virus in culture; conditions: Mycobacterium avium, ATCC 700898, 168 h
[6] = microbe, parasite or virus in culture; conditions: Mycobacterium avium, ATCC 700898, 168 h; remark: listed apart in the source

For `COc1c(N2C[C@@H]3CCCN[C@@H]3C2)c(F)cc2c(=O)c(C(=O)O)cn(C3CC3)c12` [MOXIFLOXACIN], the MIC (Mycobacterium avium) was 1 µg/mL (≈ 2.49 µM), the EC50 [1] was 8.09 µg/mL and the EC50 [2] was 5.07 µg/mL. The EC50 [3] was 5.21 µg/mL, the MIC [4] was 1 µg/mL (≈ 2.49 µM) and the EC50 [5] was at least 32 µg/mL. The EC50 [6] was 8.24 µg/mL (≈ 20.5 µM).
